Measured values published in US9505742B2, “3,4-dihydro-2H-isoquinoline-1-one and 2,3-dihydro-isoindol-1-one compounds” (Hoffmann-La Roche Inc., priority 2013, dated 2016).

How the values were obtained:
[1] = rat CKD model, cited from earlier work; for plasma aldosterone: FAD286 4 weeks, spironolactone 4 and 8 weeks of treatment
[2] = rats with experimental heart failure; cited from earlier work
[3] = molecular target: CYP11B2 (Homo sapiens, UniProt P19099); details: patients with primary aldosteronism, cited from earlier work
[4] = molecular target: T1, human CYP11B1 (Homo sapiens, UniProt P15538); test: G-402 cellular enzyme assay, human CYP11B1 (cortisol release, HTRF); type: cell-based; details: G-402 cells expressing human CYP11B1; 1 μM Deoxycortisol
T1 construct: The expression plasmids contains the ORF for either human/cyno CYP11B1 or CYP11B2; expressed in transfected cells
T1 sequence (P15538 25-503): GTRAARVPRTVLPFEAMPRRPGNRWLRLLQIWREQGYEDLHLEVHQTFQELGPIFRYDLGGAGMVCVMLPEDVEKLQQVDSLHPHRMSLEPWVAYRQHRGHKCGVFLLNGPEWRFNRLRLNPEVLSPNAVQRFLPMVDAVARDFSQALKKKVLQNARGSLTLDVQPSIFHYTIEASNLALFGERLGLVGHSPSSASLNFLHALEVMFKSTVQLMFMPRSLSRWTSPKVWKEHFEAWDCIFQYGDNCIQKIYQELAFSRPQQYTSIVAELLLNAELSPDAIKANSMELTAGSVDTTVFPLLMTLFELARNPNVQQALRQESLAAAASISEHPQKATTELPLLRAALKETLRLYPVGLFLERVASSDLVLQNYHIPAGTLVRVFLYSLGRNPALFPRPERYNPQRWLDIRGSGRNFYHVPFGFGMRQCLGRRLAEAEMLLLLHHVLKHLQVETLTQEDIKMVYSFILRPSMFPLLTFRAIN
From the text: (§1) Herein we identified the use of the G-402 cell line as a host cell to ectopically express (transiently or stably) enzymes of the CYP11 family. Specifically we developed stable G-402 cells expressing ectopically human CYP11B1, human CYP11B2, human CYP11A1, cynmolgus CYP11B1 or cynomolgus CYP11B2 enzyme activity. Importantly the identified cell line G-402 expresses co-factors (adrenodoxin and adrenodoxin reductase) important for the activity of the CYP11 family and no relevant enzyme activity of the CYP11 family (in comparison to H295R cells) was detected in these cells. Therefore the G-402 cell line is uniquely suited as a host cell for the ectopic expression of enzymes from the CYP11 family. G-402 cells can be obtained from ATCC (CRL-1440) and were originally derived from a renal leiomyoblastoma.
(§2) The expression plasmids contains the ORF for either human/cyno CYP11B1 or CYP11B2 under the control of a suitable promoter (CMV-promoter) and a suitable resistance marker (neomycin). Using standard techniques the expression plasmid is transfected into G-402 cells and these cells are then selected for expressing the given resistance markers. Individual cell-clones are then selected and assessed for displaying the desired enzymatic activity using 11-Deoxycorticosterone (Cyp11B2) or 11-Deoxycortisol (Cyp11B) as a substrate.
(§3) G-402 cells expressing CYP11 constructs were established as described above and maintained in McCoy's 5a Medium Modified, ATCC Catalog No. 30-2007 containing 10% FCS and 400 μg/ml G418 (Geneticin) at 37° C. under an atmosphere of 5% CO2/95% air. Cellular enzyme assays were performed in DMEM/F12 medium containing 2.5% charcoal treated FCS and appropriate concentration of substrate (0.3-10 uM 11-Deoxycorticosterone, 11-Deoxycortisol or Corticosterone). For assaying enzymatic activity, cells were plated onto 96 well plates and incubated for 16 h. An aliquot of the supernatant is then transferred and analyzed for the concentration of the expected product (Aldosterone for CYP11B2; Cortisol for CYP11B1). The concentrations of these steroids can be determined using HTRF assays from CisBio analyzing either Aldosterone or Cortisol.
(§4) Inhibition of the release of produced steroids can be used as a measure of the respective enzyme inhibition by test compounds added during the cellular enzyme assay. The dose dependent inhibition of enzymatic activity by a compound is calculated by means of plotting added inhibitor concentrations (x-axes) vs. measured steroid/product level (y-axes). The inhibition is then calculated by fitting the following 4-parameter sigmoidal function (Morgan-Mercer-Flodin (MMF) model) to the raw data points using the least squares method:
(§5) [formula] wherein, A is the maximum y value, B is the EC50 factor determined using XLFit, C is the minimum y value and D is the slope value.
(§6) EC50 values for compounds claimed herein were tested with the G402-based assay system described. Cyp11B2 enzyme activity was tested in presence of 1 μM Deoxycorticosterone and variable amounts of inhibitors; Cyp11B1 enzyme activity was tested in presence of 1 μM Deoxycortisol and variable amounts of inhibitors.

[5] = molecular target: T2, human CYP11B2 (Homo sapiens, UniProt P19099); test: G-402 cellular enzyme assay, human CYP11B2 (aldosterone release, HTRF); type: cell-based; details: G-402 cells expressing human CYP11B2; 1 μM Deoxycorticosterone
T2 construct: The expression plasmids contains the ORF for either human/cyno CYP11B1 or CYP11B2; expressed in transfected cells
T2 sequence (P19099 25-503): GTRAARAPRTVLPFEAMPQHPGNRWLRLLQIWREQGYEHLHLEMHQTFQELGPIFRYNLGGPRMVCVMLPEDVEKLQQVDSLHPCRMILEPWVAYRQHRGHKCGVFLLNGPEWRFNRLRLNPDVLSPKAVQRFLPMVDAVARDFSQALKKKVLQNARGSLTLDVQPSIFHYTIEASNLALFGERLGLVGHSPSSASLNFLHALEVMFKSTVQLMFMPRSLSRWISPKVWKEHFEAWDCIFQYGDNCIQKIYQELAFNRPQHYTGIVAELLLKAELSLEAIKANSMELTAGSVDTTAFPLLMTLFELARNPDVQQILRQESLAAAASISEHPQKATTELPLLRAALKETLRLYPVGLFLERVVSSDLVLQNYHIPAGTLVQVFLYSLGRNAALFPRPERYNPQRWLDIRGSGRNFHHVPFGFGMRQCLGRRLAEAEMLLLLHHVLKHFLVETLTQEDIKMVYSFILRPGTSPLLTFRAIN
From the text: as §1, §2, §3, §4, §5, §6

SMILES	EC50 [4] [nM]	EC50 [5] [nM]	further results
CC(=O)S[C@@H]1CC2=CC(=O)CC[C@]2(C)[C@H]2CC[C@@]3(C)[C@@H](CC[C@@]34CCC(=O)O4)[C@H]12 [spironolactone]			plasma aldosterone [1]: increased; angiotensin II and salt-stimulated PAI-1 mRNA expression in the aorta and the heart [1]: enhanced; renal effects of angiotensin II and high salt (albuminuria, azotemia, renovascular hypertrophy, glomerular injury, PAI-1 and osteopontin mRNA, tubulointerstitial fibrosis) [1]: prevented these renal effects
N#Cc1ccc(C2CCCc3cncn32)cc1 (centres unmarked) [FAD286]			blood pressure and cardiovascular function and structure [2]: improved; kidney function and morphology [2]: improve; plasma aldosterone [1]: reduced; angiotensin II and salt-stimulated PAI-1 mRNA expression in the aorta and the heart [1]: not; renal effects of angiotensin II and high salt (albuminuria, azotemia, renovascular hypertrophy, glomerular injury, PAI-1 and osteopontin mRNA, tubulointerstitial fibrosis) [1]: prevented these renal effects
N#Cc1ccc([C@H]2CCc3cncn32)c(F)c1 [LCI699]			circulating aldosterone levels ([3]; oral): significantly lower; blood pressure [3]: mildly decreased; hypokalemia [3]: corrected; selectivity / effects on the glucocorticoid axis [3]: poor selectivity
COc1ccc2c(n1)C(C)(C)N(c1cncc(C3(F)CCN(S(=O)(=O)C4CC4)CC3)c1)C2=O [Example 45, 6-[5-(1-Cyclopropylsulfonyl-4-fluoro-4-piperidyl)-3-pyridyl]-2-methoxy-7,7-dimethyl-pyrrolo[3,4-b]pyridin-5-one]	1250	30	

More lines, main results first:

EC50 [4] [nM]	EC50 [5] [nM]	SMILES	further results
800	14	CCCS(=O)(=O)N1CCC(c2cncc(N3C(=O)c4ccc(Cl)cc4C3(C)C)c2)C1 (single isomer, unassigned; (-)) [Example 9, (−)-5-chloro-3,3-dimethyl-2-[5-[(3S or 3R)-1-propylsulfonylpyrrolidin-3-yl]pyridin-3-yl]isoindol-1-one]	
239	1	CCCS(=O)(=O)N1CCC(c2cncc(N3C(=O)c4ccc(Cl)cc4C3(C)C)c2)CC1 [Example 15, 5-Chloro-3,3-dimethyl-2-[5-(1-propylsulfonylpiperidin-4-yl)pyridin-3-yl]isoindol-1-one]	
601	7	CC(C)S(=O)(=O)N1CCC(c2cncc(N3C(=O)c4ccc(Cl)cc4C3(C)C)c2)C1 (single isomer, unassigned; (-)) [Example 11, (−)-5-chloro-3,3-dimethyl-2-[5-[(3S or 3R)-1-propan-2-ylsulfonylpyrrolidin-3-yl]pyridin-3-yl]isoindol-1-one]	
290	2	CCS(=O)(=O)N1CCC(c2cncc(N3C(=O)c4ccc(Cl)cc4C3(C)C)c2)CC1 [Example 2, 5-Chloro-2-[5-(1-ethylsulfonylpiperidin-4-yl)pyridin-3-yl]-3,3-dimethylisoindol-1-one]	
616	7	CCS(=O)(=O)N1CC(c2cncc(N3C(=O)c4ccc(Cl)cc4C3(C)C)c2)C1 [Example 32, 5-Chloro-2-[5-(1-ethylsulfonylazetidin-3-yl)pyridin-3-yl]-3,3-dimethylisoindol-1-one]	
488	8	CC1(C)c2cc(Cl)ccc2C(=O)N1c1cncc(C2CCN(C(=O)c3ncccc3Cl)CC2)c1 [Example 20, 5-Chloro-2-[5-[1-(3-chloropyridine-2-carbonyl)piperidin-4-yl]pyridin-3-yl]-3,3-dimethylisoindol-1-one]	
